Laboratory results published in the NIST ThermoML archive (doi:10.1016/j.fluid.2015.07.036).

Settings: for mass density: 100 kPa, Liquid, single sinker densimeter

CCn1cc[n+](C)c1.N#C[C-](C#N)C#N [1-ethyl-3-methyl-1H-imidazolium tricyanomethanide]
Settings | mass density [kg/m3]
262.68 K | 1106.12
268.65 K | 1101.93
273.46 K | 1098.21
278.14 K | 1095.15
283.27 K | 1091.23
288.08 K | 1088.11
293.16 K | 1084.64
298.19 K | 1081
303.27 K | 1077.46
308.21 K | 1073.93
313.21 K | 1070.64
318.2 K | 1067.14
323.32 K | 1063.82
327.9 K | 1060.39
333.05 K | 1057.29
338.17 K | 1053.46
342.95 K | 1050.5
348.05 K | 1047.15
352.71 K | 1043.86
358.12 K | 1040.23
364.84 K | 1035.96

Settings | surface tension liquid-gas [mN/m]
283.22 K, wilhelmy plate method | 50.62
283.25 K, Ring tensiometer | 50.71
288.01 K, wilhelmy plate method | 50.33
288.03 K, Ring tensiometer | 50.29
293.17 K, Ring tensiometer | 49.61
293.19 K, wilhelmy plate method | 49.74
298.13 K, Ring tensiometer | 49.45
298.15 K, wilhelmy plate method | 49.4
303.06 K, Ring tensiometer | 48.87
303.07 K, wilhelmy plate method | 48.89
308.18 K, Ring tensiometer | 48.37
308.19 K, wilhelmy plate method | 48.42
313.19 K, wilhelmy plate method | 48.06
313.27 K, Ring tensiometer | 47.99
318.16 K, wilhelmy plate method | 47.48
318.18 K, Ring tensiometer | 47.44
323.26 K, Ring tensiometer | 46.86
323.3 K, wilhelmy plate method | 47.14
327.9 K, wilhelmy plate method | 46.7
328.44 K, Ring tensiometer | 46.65
333.28 K, Ring tensiometer | 46.24
333.4 K, wilhelmy plate method | 46.16
338.24 K, wilhelmy plate method | 45.83
338.25 K, Ring tensiometer | 45.72
343.18 K, Ring tensiometer | 45.39
343.21 K, wilhelmy plate method | 45.31
347.97 K, Ring tensiometer | 44.69
347.98 K, wilhelmy plate method | 44.86
352.81 K, Ring tensiometer | 44.55
352.89 K, wilhelmy plate method | 44.44
358.17 K, Ring tensiometer | 44.06
358.44 K, wilhelmy plate method | 43.93
365.18 K, Ring tensiometer | 43.3
365.23 K, wilhelmy plate method | 43.29

CCCC[n+]1ccc(C)cc1.N#CC(=C=[N-])C#N [1-butyl-4-methylpyridinium tricyanomethanide]
Settings | mass density [kg/m3]
263.45 K | 1059.1
267.95 K | 1056.28
273.54 K | 1052.57
278.65 K | 1048.92
283.37 K | 1045.67
288.63 K | 1042.4
293.52 K | 1038.75
298.25 K | 1035.8
303.03 K | 1032.82
308.01 K | 1029.21
313.21 K | 1025.76
318.36 K | 1022.75
323.38 K | 1019.48
327.88 K | 1016.44
332.98 K | 1013.51
337.59 K | 1010.37
342.27 K | 1007.38
348.16 K | 1003.72
353.42 K | 1000.42
358.02 K | 997.29
363.31 K | 993.79

surface tension liquid-gas [mN/m]
Settings | Ring tensiometer | wilhelmy plate method
288.6 K | 49.8 | –
293.53 K | 49.54 | 49.49
298.24 K | – | 49.18
298.25 K | 49.45 | –
303.01 K | – | 48.76
303.02 K | 48.8 | –
307.98 K | 48.37 | –
308.01 K | – | 48.35
313.22 K | 48.23 | –
313.27 K | – | 47.89
318.3 K | 48.03 | –
318.35 K | – | 47.44
323.38 K | – | 47.12
323.41 K | 47.28 | –
327.86 K | 47.1 | –
327.98 K | – | 46.65
332.9 K | – | 46.21
332.94 K | 46.55 | –
337.57 K | 46.06 | –
337.68 K | – | 45.88
344.17 K | – | 45.37
344.19 K | 45.74 | –
348.14 K | 45.27 | –
348.15 K | – | 45.03
353.35 K | 44.97 | –
353.43 K | – | 44.52
358.06 K | 44.65 | –
358.09 K | – | 44.17
363.37 K | 44.18 | –
363.55 K | – | 43.66

CCCC[N+]1(C)CCCC1.N#CC(=C=[N-])C#N [1-butyl-1-methylpyrrolidinium tricyanomethanide]
Settings | mass density [kg/m3]
263.25 K | 1028.92
268.05 K | 1026.15
274.1 K | 1022.18
278.48 K | 1019.29
283.44 K | 1015.85
288.48 K | 1012.68
292.96 K | 1010.28
298.28 K | 1006.87
303.21 K | 1003.94
308.06 K | 1000.78
313.19 K | 997.8
317.91 K | 995.05
323.17 K | 991.69
328.28 K | 988.81
333.1 K | 985.27
337.77 K | 982.59
343.16 K | 979.77
347.27 K | 977.15
353.46 K | 973.98
358.07 K | 970.73
364.38 K | 967.59

surface tension liquid-gas [mN/m]
Settings | Ring tensiometer | wilhelmy plate method
263.32 K | 52.96 | –
267.79 K | 52.64 | –
273.16 K | 52.22 | –
278.42 K | 52.03 | –
283.38 K | 51.73 | 51.36
288.45 K | – | 50.96
288.46 K | 51.49 | –
292.95 K | 51.08 | –
292.96 K | – | 50.68
298.26 K | 50.33 | –
298.36 K | – | 50.23
303.17 K | 49.82 | –
303.2 K | – | 50.1
308.03 K | – | 49.59
308.05 K | 49.88 | –
313.16 K | 49.27 | –
313.2 K | – | 48.94
317.89 K | 48.85 | –
317.94 K | – | 48.74
323.16 K | 48.36 | 48.3
328.06 K | – | 47.88
328.22 K | 48.2 | –
333.03 K | – | 47.55
333.06 K | 47.81 | –
337.77 K | – | 47.21
337.78 K | 47.44 | –
343.45 K | – | 46.74
343.47 K | 47.14 | –
347.24 K | 46.8 | –
347.78 K | – | 46.41
353.48 K | 46.51 | –
353.56 K | – | 46.01
358.13 K | 46.25 | –
358.24 K | – | 45.64
364.65 K | 45.8 | –
364.77 K | – | 45.17
